The subject of series [1] is colchicine binding site of tubulin. The series can be described thus: EBI labeling assay in MIA PaCa2 cells (Western blot). Type of series: cell-based. The note with it: 2 hours compound, then 2 hours 100 μM EBI, FIG. 2, FIG. 3. Background: A western blot detects proteins with antibodies after separation by electrophoresis.
Procedure: MIA PaCa2 cells were cultured in DMEM+10% FBS and 1% P/S. Cells were plated at 1.5-2×10^6 in 60 mm dishes. For drug treatments, cells were treated the day after plating with 0.1% DMSO or the compounds tested at the concentrations indicated in FIG. 2 for 2 hours.
• Cells were treated with compounds for 2 hours at 37°, 5% CO2 (in the cell culture incubator), and then for an additional 2 hours with 100 μM EBI (with compounds present) under the same conditions. • Cells were then harvested with Trypsin and pelleted at 500 g for 3 minutes. • Cells were rinsed in 1 mL PBS and transferred to clean epi tubes. […] BCA assay plates were incubated for 15 minutes in the 37-degree incubator in the outer molecular lab. • After protein normalization (including addition of reducing Laemmli buffer from a 6× stock) samples were boiled at 95 degrees for 3 minutes and frozen for subsequent Western Blotting.
Significance in difference of treated MIA PaCa-2 cells to 0.1% DMSO treated cells were tested by Student t test (* p<0.05; ** p<0.01; *** p<0.001).
For the next series, the system named is DU145 cells. Nature of the series: In vitro potency, ATPlite 1Step (NTRC Oncolines). Type of series: cell-based. As to conditions: Homo sapiens, DU-145. As for the experimental part:
FIG. 12A-12E show the efficacy of Compound lin a prostate cancer xenograft model (DU145). A) In vitro potency of Compound 1 in DU145 cells as evaluated by ATPlite 1Step™ Perkin Elmer (performed by NTRC Oncolines). B) DU145 cells were implanted subcutaneously in nude mice and tumors were allowed to grow to a volume of 210 mm^3 followed by randomization of animals into three (3) groups (vehicle control, 75 mg/kg, 150 mg/kg Compound 1) with 12 animals per group. A Compound 1 solid dispersion was prepared prior to each dosing and administered by oral gavage two times a day (BID). Mean tumor volume of each group over time and the growth of tumor in each individual animal was graphed. For each individual animal of […] group TGI (%) was calculated based on the tumor growth inhibition of individual tumor at each given day of the study compared to the average of the group for that given day of the study. P-values were calculated using two-tailed distribution and two-sample equal variance (homoscedastic) for each group treated with Compound 1 for each given day of the study in reference to vehicle control. NS p>0.05; *p≤0.05; **p≤0.01; ***p p≤0.001; **** p≤0.0001. […] The level of two biomarkers, pHH3 and CCNB1 in each tissue was measured and graphed as the Min-to-Max plot and scatter plot of the level of each biomarker. […]
(ATP-based viability assays read luminescence as a measure of living cells.)

The subject of another series is A549 cells. The series can be described thus: In vitro potency, ATPlite 1Step (NTRC Oncolines). The note with it: Homo sapiens; for Emax: A549, A549, in vitro, biphasic, read-out: Maximum effect (%). In kind it is cell-based. As for the experimental part:
FIG. 13A-13B show efficacy of Compound 1 in a lung adenocarcinoma xenograft model (A549). A) In vitro potency of Compound 1 in A549 cells as evaluated by ATPlite 1Step™ Perkin Elmer (performed by NTRC Oncolines). B) A549 cells (5×10^6) were implanted subcutaneously in athymic female nude mice and tumors were allowed to grow to a volume of ˜112 mm^3 followed by randomization of animals into three (3) groups (vehicle control, 75 mg/kg, 150 mg/kg Compound 1) with 12 animals per group. A Compound 1 solid dispersion was prepared prior to each dosing and administered by oral gavage two times a day (BID). Mean tumor volume of each group over time and the growth of tumor in each individual animal was graphed. For each individual animal of […] group TGI (%) was calculated based on the tumor growth inhibition of individual tumor at each given day of the study compared to the average of the group for that given day of the study. P-values were calculated using two-tailed distribution and two-sample equal variance (homoscedastic) for each group treated with Compound 1 for each given day of the study in reference to vehicle control. NS p>0.05; *p≤0.05; **p≤0.01; ***p p≤0.001; **** p≤0.0001.
A549 is a human lung adenocarcinoma cell line isolated from the lung tissue of their origin. […] A549 cells were implanted subcutaneously in nude mice and tumors were allowed to grow to an average volume of 112 mm^3 followed by randomization into three (3) groups consisting of vehicle control, 75 mg/kg and 150 mg/kg Compound 1 (12 animals per group). A Compound 1 solid dispersion was administered by oral gavage two times a day (BID). All animals remained in the study until Day 28 except one animal from Group 3 (Animal #29), which exited the study on Day 11 due to more than 20% body weight loss. This animal was excluded from all analysis. Data from Day 14-18 were excluded from the analysis due to inconsistencies in data collection methods.

The nature of series [2]: Blood brain barrier permeability (PVDF membrane coated with porcine brain polar lipid extract). Type of series: in vitro ADME. The method, then:
Preparation of Donor Solution a) 0.2 mM working solution was prepared by diluting 10 mM stock solution with DMSO. b) 10 μM donor solution (5% DMSO) was prepared by diluting 20 μL of working solution with 380 μL PBS. 2) 150 μL of 10 μM donor solutions to each well of the donor plate, whose PVDF membrane was precoated with 5 μL of 1% brain polar lipid extract (Porcine)/dodecane mixture. Duplicates were prepared. 3) 300 μL of PBS was added to each well of the PTFE acceptor plate. 4) The donor plate and acceptor plate were combined together and incubated for 4h at room temperature with shaking at 300 rpm. 5) Preparation of TO sample: 20 μL donor solution was transferred to new well followed by the addition of 250 μL PBS (DF: 13.5), 130 μL ACN (containing internal standard) as TO sample. 6) Preparation of acceptor sample: The plate was removed from incubator. 270 μL solution was transferred from each acceptor well and mixed with 130 μL ACN (containing internal standard) as acceptor sample. 7) Preparation of donor sample: […] was transferred from each donor well and mixed with 250 μL PBS (DF: 13.5), 130 μL ACN (containing internal standard) as donor sample. 8) Acceptor samples and donor samples were all analyzed by LC/MS/MS.

In general, IC50 refers to the concentration needed to halve the response being measured. A higher IC50 goes with weaker potency.

SMILES strings stand for the structures. Like-named read-outs stand apart in the source and are kept apart here.

On to `COc1ccccc1-c1nc(CNC(=O)c2ccccc2OC(F)F)n[nH]1` [Compound 1, 2-(difluoromethoxy)-N-[[5-(2-methoxyphenyl)-1H-1,2,4-triazol-3-yl]methyl]benzamide], for which the “Formation of EBI:β-tubulin adducts” value in series [1] is recorded as “inhibited the formation of EBI (N,N′-ethylene-bis(iodoacetamide)):β-tubulin adducts”. Further, the IC50 in the series with DU145 cells (DU145) was determined as 77 nM; in the series on A549 cells (A549, biphasic response, first phase), 53 nM. Further, the Emax with DU145 cells (DU145, in vitro, read-out: Maximum effect (%)) was 91%; in the series on A549 cells (at highest concentration tested) it was 100%; with A549 cells (first phase), 52%. Also, the Permeability entry in series [2] (10 μM, 4 h) is “highly permeable and High”. The Papp at 4 h, 10 μM in series [2] (PAMPA, read-out: Mean Pe) amounted to 6.76 ×10⁻⁶ cm/s. Besides, the recovery at 4 h, 10 μM in series [2] (pig, not told) worked out at 85.8%.
